We go through 91 compounds from a melting point compilation (Tetko et al.; mined from patent text by program, amines drawn as free bases though some values may be those of a salt).

As for `COCCOc1ccc(CO)c(Oc2ncc(C(F)(F)F)cc2Cl)c1`, the melting point is 85 to 85.5 °C.

As to `COC(=O)CCCC#Cc1cc(Cl)ccc1NS(=O)(=O)c1cn(C)cn1`, the melting point fell in the range of 76 to 79 °C.

Consider `CCOCc1nc2cnc3cc(-c4ccccc4)ccc3c2n1CCOc1ccccc1`, for which the melting point lay in the range of 137 to 138 °C.

Take `CCCCCCCCCCC[C@@H](O)CCO`: the melting point is 59 to 60 °C. The same measure for `COCCc1ccc(OCC(O)C(C)(C)N)cc1` (stereo unspecified): 120 to 122 °C; for `COc1ccc(S(=O)(=O)C2(C(=O)NO)CCN(CCCOc3ccccc3)CC2)cc1`: 101 °C. As for `CN(Cc1ccccc1)C(=O)c1cnc2c3c(c(F)cc2c1)C(=O)C(C#N)C=N3` (stereo unspecified), the figure is 267 to 269 °C. The same measure for `CCCCC(Cc1ccc(OCCNC(=O)c2ccc(-c3cccc(OC)c3)cc2)cc1)C(=O)O` (stereo unspecified): 107 to 109 °C. For `Clc1ccc2c(c1)N(c1ncnc3c(Cl)cccc13)CC2`, the melting point stood at 190 °C.

The compound `CC(C)(COc1ccc([N+](=O)[O-])cc1)N1CC(COc2cccc(Cl)c2)OC1=O` (stereo unspecified) gave a melting point of 108 to 112 °C. For the compound `Cc1nc(-c2ccccc2)nc(N2c3ccccc3CC2C(=O)N(C)c2ccc(Cl)cc2)c1C` (stereo unspecified), the melting point fell in the range of 236 to 238 °C. The same measure for `CC(=O)Nc1ccc2c(c1)C(CN1CC=C(c3cn(C)c4cc(Cl)ccc34)CC1)CC2` (stereo unspecified): 189 to 193 °C. The same measure for `CCCCCCNc1ccc(OC2CCN(C(=O)OC(C)(C)C)CC2)cc1`: 46 to 47 °C.

Compound `Cc1nc(-c2ccccc2)nc(-c2ccncc2)c1C` gave a melting point of 152 to 153 °C.

For `CC(CSc1cc(C(C)(C)C)c(O)c(C(C)(C)C)c1)C(=O)N1CCCC1` (stereo unspecified), the melting point lay in the range of 125 to 126 °C. Consider `O=[N+]([O-])c1cccc(-c2cccc([N+](=O)[O-])n2)n1`, for which the melting point lay in the range of 206 to 207 °C.

`COc1ccc(S(=O)(=O)N(C)C)c([N+](=O)[O-])c1` yielded a melting point of 90 to 92 °C.

The compound `CC(=O)N1CCC2(CC1)CC(=O)c1c(ccc([N+](=O)[O-])c1O)O2` displayed a melting point of 201 to 202 °C. The same measure for `COc1ccc(-c2cc(C(N)=O)c(=O)n(CC=Cc3ccccc3)n2)cc1`: 184 to 186 °C; for `O=c1[nH]cc(-c2ccnc(Cl)c2)n1-c1ccc(F)cc1`: 270 °C. `CC(C)CCCC(=S)SCC(C)C` showed a melting point of 43 to 44 °C.

In the case of `COc1cc(C2=C(C(C)(C)C)C(C)(C)CO2)cc2oc(-c3ccccc3)nc12`, the melting point lay within 68.5 to 69 °C. As for `O=c1nc(-c2ccc(O)cc2)oc2ccccc12`, the figure is 273 to 275 °C; as for `Cc1nc(Cn2cnc3c2c(=O)n(C)c(=O)n3C)no1`, 135 °C; as for `COc1ccc(C2Cc3cc(C(F)(F)F)ccc3NC(=O)C2CSC)cc1` (stereo unspecified), 224 to 226 °C.

Compound `COc1ccc(C(NCC(=O)Nc2c(C(C)C)cccc2C(C)C)c2ccccc2)cc1` (stereo unspecified) returned a melting point of 117 to 118 °C.

`C=Cc1cnc2c(NC(=O)c3c(Cl)cccc3Cl)cccc2c1CC(=O)NCc1ccccn1` came in with a melting point of 194 to 195 °C.

Compound `CC(=O)N1CCCC2=C1CCc1cccc(Cl)c12` returned a melting point of 117 to 118 °C. As for `O=C(O)C1=Cc2cc(Cl)c(Oc3ccc(OC(F)(F)F)cc3)cc2OC1C(F)(F)F` (stereo unspecified), the figure is 198 to 199 °C; as for `Cn1nc(Cc2ccc([N+](=O)[O-])cc2)oc1=O`, 115 to 116 °C; as for `COc1ccc(CCN2CCC(N3Cc4cc(Cl)c(S(N)(=O)=O)cc4C3=O)CC2)cc1`, 125 to 135 °C. The same measure for `CCCCCCCCCCOc1ccc2cc(C#CC(C)O)ccc2c1` (stereo unspecified): 74 to 75 °C; for `CCc1ncnc(NC(CO)CO)c1Cl`: 104 to 105 °C; for `COc1cc(CC(N)=O)c(CCc2ccc(O)c(OCc3ccccc3)c2)c(OC)c1OC`: 139 to 141 °C. The same measure for `CC(c1ccccc1)N1Cc2cncn2C(c2cccc(Br)c2)C1=O` (single isomer, unassigned; (+)): 45 to 50 °C; for `Cc1nc2ccccc2c(=O)n1CCN1CCC(c2noc3cc(F)ccc23)CC1`: 164 to 165 °C. In turn, `CCCCCCCCCCCCNC(=O)ON=C(C1=C(Br)C(=O)C(C)(C)O1)c1ccccc1` yielded a melting point of 61.5 to 62.5 °C.

`O=C(O)c1ccccc1C(=O)N1CC2CCC(C1)O2` showed a melting point of 149 to 150 °C. `C=CC(=O)NC1CCCCC1` yielded a melting point of 109 to 110 °C.

`CCSc1nc(=O)n(C(=O)Nc2cccc(Cl)c2)s1` had a melting point of 168 °C. As for `CCOC(=O)Cc1ccc(OCCCN2C(=O)c3ccccc3C2=O)c(OC)c1`, the figure is 70 to 72 °C; as for `CCC#CCOc1cc(/C=C/C(=O)Nc2ccccc2C(=O)O)ccc1OC`, 124 to 125 °C; as for `CC(C)(C)OC(=O)NCCCCCCCCNC(=O)OC(C)(C)C`, 96 to 97 °C. The same measure for `O=C1Nc2ccc3ccccc3c2CCC1(Cl)Cl`: 187 to 191 °C; for `C=Cn1cc(C(=O)O)c(=O)c2cc(F)c(N3CCOCC3)cc21`: 218 to 220 °C. The same measure for `Cc1c(C)c2c(c(C)c1NC(=O)CC(C)(C)C)C(c1ccc(-c3ccccc3)cc1)CO2` (stereo unspecified): 218 to 219 °C; for `CCOC(=O)c1ccc(OCc2nc(C)c(C)nc2C)cc1`: 75 to 75.7 °C. `CN1C(=O)C(NC(=O)CCC2CCCCC2)N=C(c2ccccc2)c2ccsc21` (stereo unspecified) showed a melting point of 189 to 190 °C. The same measure for `CC(C)N[C@@H]1Cc2cccc(O)c2C[C@H]1O` (relative stereo): 138 to 140 °C; for `CCOP(=O)(OCC)C(Sc1cc(Br)ccc1O)=P(OCC)(OCC)OCC`: 118 to 120 °C; for `CC(C)(C)OC(=O)NCC(COC(C(F)(F)F)(C(F)(F)F)C(F)(F)F)(COC(C(F)(F)F)(C(F)(F)F)C(F)(F)F)C(=O)O`: 128 to 130 °C. With `Cc1ccc(C)c(NC(=O)CCc2ccc(O)c(N)c2)c1`, the melting point is 162 to 163 °C. The same measure for `CCCN1CCN(c2cccc3c2C[C@H](NC(C)=O)CC3)CC1`: 139 to 140 °C. The same measure for `CC(C)(C)[Si](C)(C)Oc1ccc([N+](=O)[O-])cc1`: 36 to 38 °C; for `CS(=O)(=O)c1ccc(C(CC2CCOCC2)c2cnc(-c3ccccn3)[nH]2)cc1Cl` (stereo unspecified): 106 to 109 °C.

The compound `COC(=O)Cn1c(=O)[nH][nH]c1=O` had a melting point of 215 to 218 °C. Regarding `COc1ccc(C=O)cc1OC1CC2CCC1C2` (stereo unspecified), the melting point fell in the range of 75.5 to 79.5 °C. The same measure for `COc1cc2ncc(C#N)c(Nc3cccc(Oc4ccccc4)c3)c2cc1OC`: 253 to 254 °C; for `CCOC(=O)COc1ccc(N)cc1Cl`: 59 to 62 °C; for `Cc1oc(-c2ccccc2)nc1CCOc1ccc(CC#N)cc1`: 109 to 110 °C. In turn, `CC(C)(C)c1nn(-c2cc(F)c(C#N)cc2F)c(=O)o1` came in with a melting point of 137 °C. As for `Cc1ccc(C2OC(=O)NC2=O)s1` (stereo unspecified), the figure is 108 to 109 °C; as for `CC(C)(C)c1cc(C(=O)ON(Cc2ccccc2)Cc2ccccc2)cc(C(C)(C)C)c1O`, 90 to 92 °C. The same measure for `COC(=C(C#N)C(=O)C(C)(C)C)c1ccc(Cl)cc1[N+](=O)[O-]`: 130 to 131 °C; for `CCOC(=O)c1cnc2c(c1Cl)CN(C(=O)OCC)CC2`: 231 to 233 °C; for `O=C1NCSc2ccsc21`: 136 to 138 °C. As for `CN(C)N=C(c1ccccc1)c1cc(C(C)(C)C)c(O)c(C(C)(C)C)c1`, the figure is 111 to 124 °C; as for `Cc1cn(Cc2ccc3c(c2)-c2[nH]nc(-c4ccsc4)c2C3)cn1`, 122 to 125 °C. For `O=C(NCCc1cccc2ccc(OC3CCCCC3)cc12)C1CC1`, the melting point was in the range of 153 to 155 °C. With `COC(=O)/C=C/C=C/c1ccc(OCc2nc(-c3ccccc3)oc2C)c(OC)c1`, the melting point was in the range of 166 to 167 °C. For `CCNc1ncnc(NCC)c1[N+](=O)[O-]`, the melting point was 80 to 81 °C.

`CC(C)(NC(=O)c1cc2c(n(CC3CCCCC3)c1=O)CCCCCC2)C(=O)O[C@H]1CO[C@H](c2ccccc2)OC1` came in with a melting point of 166 to 168 °C. The same measure for `N#Cc1ccc(Cn2cncn2)c(-c2ccc(OS(N)(=O)=O)c(Cl)c2)c1`: 139 to 142 °C. As for `COc1ncnc(OC)c1N(C(=O)CCl)C(C)n1cccn1` (stereo unspecified), the figure is 124 to 126 °C; as for `CCOC(=O)c1c(NC(=O)NCC(=O)OC)sc(C)c1C`, 151 °C; as for `O=[N+]([O-])c1ccc(Sc2ncc[nH]2)cc1`, 207 to 209 °C. As for `COC(=O)C1=C(S(=O)(=O)NC(=O)Nc2nc(C)cc(OC)n2)CCC1`, the figure is 161 to 163 °C; as for `Cc1ccc2c3c(ncc2c1)CCC(=O)N3`, 265 to 266 °C; as for `O=C(O)c1ccc(-c2cnc3c(c2)N(Cc2ccccc2)CCN3)cc1`, greater than 300 °C.

`CCC1(CC)C(=O)N(C(C)(C)C)CC(C)(C)N1C(C)c1ccc(C(C)=O)cc1` (stereo unspecified) had a melting point of 91 to 94 °C. As for `CCCC(=O)Nc1cscn1`, the figure is 63 to 66 °C; as for `COC(=O)Oc1c(Cl)c(-c2ccc(Cl)cc2)oc(=O)c1-c1c(C)cc(C)cc1C`, 136 to 138 °C.

`CON=Cc1[nH]ccc1S(=O)(=O)NC(C)(C)C` returned a melting point of 99 to 101 °C.

In the case of `CC1(C)CCC(C)(C)c2cc(C(=O)NNC(=O)c3ccc(C#N)cc3)ccc21`, the melting point lay within 274 to 277 °C. The same measure for `CC(C)OC(=O)CS(=O)(=O)C=C1SC=CS1`: 127 to 128 °C; for `Cc1nc(-c2ccccc2)c(-c2ccccc2)n1CCCCCCNC(=O)Oc1ccccc1F`: 129 to 131 °C. The same measure for `C=C(C)C[C@H]1CC(C)=CCN1c1ccccc1`: 55 to 57 °C; for `O=S(=O)(CC1CCN(CCC2CCOc3ccccc32)CC1)Nc1ccccc1` (stereo unspecified): 186 °C; for `CC(=O)Nc1cc(C)c(N)cc1C`: 133 to 135 °C. The same measure for `CCOC(=O)c1cc(-c2nnnn2C)c(-c2ccc(F)cc2)s1`: 132 to 133 °C; for `CCNc1nc(C)c(-c2ccnc(Nc3ccc(N4CCOCC4)c(OC)c3)n2)s1`: 224 to 226 °C.

A word on the melting point: it is the temperature of the solid-liquid transition.
